In the supplement of paper PMC10307832:

Experiments:
Test in all cases: relative viability (nuclei count vs DMSO), 5 days (fraction); higher = more cells survive
[1] = tested on: SW 900
How it was run: (§1)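 Dosing by pin tool came one day after lung cancer cell lines were seeded in 1536-well plates, using either one drug or a fixed anchor-drug dose plus five library-drug doses (not always all listed) in √10 steps. After 5 days, nuclei were counted on 4× images. Relative viability is treated-well nuclei count divided by vehicle-well nuclei count, and values are medians of duplicate plates.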

[2] = tested on: NCI-H2342
How it was run: as §1

[3] = tested on: NCI-H522
How it was run: as §1

[4] = tested on: NCI-H1648
How it was run: as §1

[5] = tested on: NCI-H1703
How it was run: as §1

[6] = tested on: Calu-6
How it was run: as §1

[7] = tested on: IA-LM
How it was run: as §1

[8] = tested on: NCI-H1299
How it was run: as §1

[9] = tested on: A549
How it was run: as §1

[10] = tested on: EBC-1
How it was run: as §1

[11] = tested on: NCI-H1563
How it was run: as §1

**Q.** What does the source list for `O=c1[nH]c2ccccc2n1C1CCN(CCCC(c2ccc(F)cc2)c2ccc(F)cc2)CC1` [Pimozide] + CC(=O)c1c(C)c2cnc(Nc3ccc(N4CCNCC4)cn3)nc2n(C2CCCC2)c1=O [Palbociclib] (partner 0.5 µM)?
**A.** relative viability ([1]; first compound 0.08 µM): 0.526; relative viability ([1]; first compound 0.253 µM): 0.572; relative viability ([1]; first compound 2.53 µM): 0.511; relative viability ([1]; first compound 8 µM): 0.443; relative viability ([2]; first compound 0.08 µM): 0.573; relative viability ([2]; first compound 0.253 µM): 0.526; relative viability ([2]; first compound 0.8 µM): 0.436; relative viability ([2]; first compound 2.53 µM): 0.484; relative viability ([2]; first compound 8 µM): 0.507; relative viability ([3]; first compound 0.08 µM): 0.766; relative viability ([3]; first compound 0.253 µM): 0.785; relative viability ([3]; first compound 0.8 µM): 0.94; relative viability ([3]; first compound 2.53 µM): 0.891; relative viability ([3]; first compound 8 µM): 0.901; relative viability ([4]; first compound 0.08 µM): 0.301; relative viability ([4]; first compound 0.8 µM): 0.233; relative viability ([4]; first compound 2.53 µM): 0.282; relative viability ([4]; first compound 8 µM): 0.31

**Q.** Which relative viability ([5]; first compound 0.08 µM) does the source give for `O=c1[nH]c2ccccc2n1C1CCN(CCCC(c2ccc(F)cc2)c2ccc(F)cc2)CC1` [Pimozide] + CS(=O)(=O)CCNCc1ccc(-c2ccc3ncnc(Nc4ccc(OCc5cccc(F)c5)c(Cl)c4)c3c2)o1 [Lapatinib] (partner 2 µM) here?
**A.** 1.02

**Q.** And the relative viability ([5]; first compound 0.253 µM)?
**A.** 0.944

**Q.** What about the relative viability ([5]; first compound 0.8 µM) of the same molecule?
**A.** 0.763

**Q.** And the relative viability ([5]; first compound 2.53 µM)?
**A.** 0.958

**Q.** And the relative viability ([5]; first compound 8 µM)?
**A.** 0.865

**Q.** What about the relative viability ([6]; first compound 0.08 µM) of the same molecule?
**A.** 1.08

**Q.** And the relative viability ([6]; first compound 0.253 µM)?
**A.** 1.07

**Q.** And the relative viability ([6]; first compound 0.8 µM)?
**A.** 1.02

**Q.** What about the relative viability ([6]; first compound 2.53 µM) of the same molecule?
**A.** 1.02

**Q.** And the relative viability ([6]; first compound 8 µM)?
**A.** 0.933

**Q.** And the relative viability ([7]; first compound 0.08 µM)?
**A.** 0.888

**Q.** And the relative viability ([7]; first compound 0.253 µM)?
**A.** 0.987

**Q.** And the relative viability ([7]; first compound 0.8 µM)?
**A.** 0.64

**Q.** What about the relative viability ([7]; first compound 2.53 µM) of the same molecule?
**A.** 0.761

**Q.** What about the relative viability ([7]; first compound 8 µM) of the same molecule?
**A.** 0.893

**Q.** What about the relative viability ([8]; first compound 0.08 µM) of the same molecule?
**A.** 0.977

**Q.** And the relative viability ([8]; first compound 0.253 µM)?
**A.** 0.972

**Q.** And the relative viability ([8]; first compound 0.8 µM)?
**A.** 0.91

**Q.** And the relative viability ([8]; first compound 2.53 µM)?
**A.** 0.937

**Q.** And the relative viability ([8]; first compound 8 µM)?
**A.** 0.875

**Q.** And the relative viability ([9]; first compound 0.08 µM)?
**A.** 0.912

**Q.** What about the relative viability ([9]; first compound 0.253 µM) of the same molecule?
**A.** 1.01

**Q.** And the relative viability ([9]; first compound 0.8 µM)?
**A.** 0.976

**Q.** And the relative viability ([9]; first compound 2.53 µM)?
**A.** 0.882

**Q.** And the relative viability ([9]; first compound 8 µM)?
**A.** 0.802

**Q.** What about the relative viability ([10]; first compound 0.08 µM) of the same molecule?
**A.** 0.208

**Q.** What about the relative viability ([10]; first compound 0.253 µM) of the same molecule?
**A.** 0.213

**Q.** And the relative viability ([10]; first compound 0.8 µM)?
**A.** 0.192

**Q.** What about the relative viability ([10]; first compound 2.53 µM) of the same molecule?
**A.** 0.223

**Q.** What about the relative viability ([10]; first compound 8 µM) of the same molecule?
**A.** 0.162

**Q.** And the relative viability ([11]; first compound 0.08 µM)?
**A.** 0.955

**Q.** What about the relative viability ([11]; first compound 0.253 µM) of the same molecule?
**A.** 0.829

**Q.** And the relative viability ([11]; first compound 0.8 µM)?
**A.** 0.933

**Q.** What about the relative viability ([11]; first compound 2.53 µM) of the same molecule?
**A.** 0.756

**Q.** What about the relative viability ([11]; first compound 8 µM) of the same molecule?
**A.** 0.533

**Q.** For `O=c1[nH]c2ccccc2n1C1CCN(CCCC(c2ccc(F)cc2)c2ccc(F)cc2)CC1` [Pimozide] + CS(=O)(=O)N1CCN(Cc2cc3nc(-c4cccc5[nH]ncc45)nc(N4CCOCC4)c3s2)CC1 [Pictilisib] (partner 1 µM), which relative viability ([5]; first compound 0.08 µM) is on record?
**A.** 0.24

**Q.** What about the relative viability ([5]; first compound 0.253 µM) of the same molecule?
**A.** 0.273

**Q.** What about the relative viability ([5]; first compound 0.8 µM) of the same molecule?
**A.** 0.296

**Q.** What about the relative viability ([5]; first compound 2.53 µM) of the same molecule?
**A.** 0.264

**Q.** What about the relative viability ([5]; first compound 8 µM) of the same molecule?
**A.** 0.246

**Q.** What about the relative viability ([6]; first compound 0.08 µM) of the same molecule?
**A.** 0.952

**Q.** And the relative viability ([6]; first compound 0.253 µM)?
**A.** 0.984

**Q.** What about the relative viability ([6]; first compound 0.8 µM) of the same molecule?
**A.** 0.808

**Q.** And the relative viability ([6]; first compound 2.53 µM)?
**A.** 0.84

**Q.** What about the relative viability ([6]; first compound 8 µM) of the same molecule?
**A.** 0.872

**Q.** And the relative viability ([7]; first compound 0.253 µM)?
**A.** 0.28

**Q.** What about the relative viability ([7]; first compound 0.8 µM) of the same molecule?
**A.** 0.288

**Q.** What about the relative viability ([7]; first compound 2.53 µM) of the same molecule?
**A.** 0.404

**Q.** What about the relative viability ([7]; first compound 8 µM) of the same molecule?
**A.** 0.438

**Q.** And the relative viability ([8]; first compound 0.08 µM)?
**A.** 0.788

**Q.** And the relative viability ([8]; first compound 0.253 µM)?
**A.** 0.729

**Q.** What about the relative viability ([8]; first compound 0.8 µM) of the same molecule?
**A.** 0.666

**Q.** And the relative viability ([8]; first compound 2.53 µM)?
**A.** 0.745

**Q.** What about the relative viability ([8]; first compound 8 µM) of the same molecule?
**A.** 0.703

**Q.** What about the relative viability ([9]; first compound 0.08 µM) of the same molecule?
**A.** 0.524

**Q.** What about the relative viability ([9]; first compound 0.253 µM) of the same molecule?
**A.** 0.472

**Q.** And the relative viability ([9]; first compound 0.8 µM)?
**A.** 0.494

**Q.** What about the relative viability ([9]; first compound 2.53 µM) of the same molecule?
**A.** 0.385

**Q.** And the relative viability ([9]; first compound 8 µM)?
**A.** 0.448

**Q.** And the relative viability ([10]; first compound 0.08 µM)?
**A.** 0.393

**Q.** What about the relative viability ([10]; first compound 0.253 µM) of the same molecule?
**A.** 0.37

**Q.** What about the relative viability ([10]; first compound 0.8 µM) of the same molecule?
**A.** 0.364

**Q.** And the relative viability ([10]; first compound 2.53 µM)?
**A.** 0.269

**Q.** What about the relative viability ([10]; first compound 8 µM) of the same molecule?
**A.** 0.27

**Q.** What about the relative viability ([11]; first compound 0.08 µM) of the same molecule?
**A.** 0.654

**Q.** What about the relative viability ([11]; first compound 0.253 µM) of the same molecule?
**A.** 0.646

**Q.** What about the relative viability ([11]; first compound 0.8 µM) of the same molecule?
**A.** 0.667

**Q.** And the relative viability ([11]; first compound 2.53 µM)?
**A.** 0.642

**Q.** What about the relative viability ([11]; first compound 8 µM) of the same molecule?
**A.** 0.637
